“And” between values parts separate entries of the source, which are not always exact repeats. Identical values can stand only once. Like-named read-outs stand apart in the source and are kept apart here.
Key:
[1] = system: Capan-1 cells (K-Ras G12V); assay: CellTiter-Glo cell viability, Capan-1; format: cell-based, human; settings: K-Ras G12V, 5-day treatment, read-out: Capan-1 Cell Viability IC50
Summary of the method: (§1)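 Compounds were dispensed directly onto seeded cells and incubated until day 5, then plates were equilibrated at room temperature for about 30 min before CellTiter-Glo luminescence readout. Signals were normalized as (sample/average DMSO)×100 and fitted with a four-parameter logistic model.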

KRAS G12C = KRAS G12C (Homo sapiens (Human), UniProt P01116+P62937, G12C); assay: Ras-Raf disruption/FRET/MOA assay (BRAF RBD, Cyclophilin A); format: biochemical; settings: read-out: KRAS G12C FRET IC50
Summary of the method: (§2)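 TR-FRET readout: anti-His Eu-W1024 (10 nM) and anti-GST allophycocyanin (50 nM) added after 3 h, 25° C compound incubation, then 1.5 h more. Decrease in FRET ratio versus DMSO wells marks Ras:RAF disruption; IC50 reported.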

KRAS G12D = KRAS G12D (Homo sapiens (Human), UniProt P01116+P62937, G12D); assay: as above; format: biochemical; settings: read-out: KRAS G12D FRET IC50
Summary of the method: as §2

KRAS G12S = KRAS G12S (Homo sapiens (Human), UniProt P01116+P62937, G12S); assay: as above; format: biochemical; settings: read-out: KRAS G12S FRET IC50
Summary of the method: as §2

KRAS G12V = KRAS G12V (Homo sapiens (Human), UniProt P01116+P62937, G12V); assay: as above; format: biochemical; settings: read-out: KRAS G12V FRET IC50
Summary of the method: as §2

KRAS G13C = KRAS G13C (Homo sapiens (Human), UniProt P01116+P62937, G13C); assay: as above; format: biochemical; settings: read-out: KRAS G13C FRET IC50
Summary of the method: as §2

KRAS G13D = KRAS G13D (Homo sapiens (Human), UniProt P01116+P62937, G13D); assay: as above; format: biochemical; settings: read-out: KRAS G13D FRET data IC50
Summary of the method: as §2

KRAS Q61H = KRAS Q61H (Homo sapiens (Human), UniProt P01116+P62937, Q61H); assay: as above; format: biochemical
Summary of the method: as §2

KRAS WT = KRAS WT (Homo sapiens (Human), UniProt P01116+P62937); assay: as above; format: biochemical; settings: read-out: KRAS WT FRET data IC50
Summary of the method: as §2

NRAS G12C = NRAS G12C (Homo sapiens (Human), UniProt P01111+P62937, G12C); assay: as above; format: biochemical; settings: read-out: NRAS G12C FRET data IC50
Summary of the method: (§3)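 25 μM tagless Cyclophilin A, 12.5 nM His6-Ras-GMPPNP and 50 nM GST-BRAF RBD in HEPES pH 7.3 buffer with 5 mM MgCl2, with compound (10-point 3-fold series from 30 μM final) for 3 h at 25 °C. Anti-His Eu and anti-GST APC then added for 1.5 h. IC50 from TR-FRET ratio decrease versus DMSO.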

NRAS Q61K = NRAS Q61K (Homo sapiens (Human), UniProt P01111+P62937, Q61K); assay: as above; format: biochemical
Summary of the method: as §3

NRAS Q61R = NRAS Q61R (Homo sapiens (Human), UniProt P01111+P62937, Q61R); assay: as above; format: biochemical
Summary of the method: as §3

NRAS WT = NRAS WT (Homo sapiens (Human), UniProt P01111+P62937); assay: as above; format: biochemical
Summary of the method: as §3

[2] = system: NCI-H358 cells (K-Ras G12C); assay: CellTiter-Glo cell viability, NCI-H358; format: cell-based, human; settings: K-Ras G12C, 5-day treatment, read-out: H358 Cell Viability IC50
Summary of the method: as §1

[3] = system: K-Ras G12C (NCI-H358 cells); assay: Potency assay: pERK in NCI-H358 cells; format: cell-based, human; settings: Homo sapiens; NCI-H358 cells, 4 hours; read-out: pERK EC50 (H358 KRAS G12C)
Summary of the method: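 Cells plated the day before were exposed for 4 h at 37° C, 5% CO2 to a 10-point, 3-fold DMSO dilution series (10 mM top stock), in duplicate. Phospho-ERK was read by AlphaLISA SureFire Ultra or by In-Cell Western with DRAQ5 DNA stain, and IC50 came from a 4-parameter sigmoidal fit.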

NCI-H358 (K-Ras G12C) = assay: CellTiter-Glo cell viability assay, NCI-H358; format: cell-based, human; settings: Homo sapiens, NCI-H358, 120 h, 5-day treatment; read-out: H358 Cell Viability assay data (K-Ras G12C, IC50)
Summary of the method: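 NCI-H358 cells were treated with test compounds dispensed directly into the assay wells and incubated until day 5. Viability was then read by CellTiter-Glo luminescence after a ~30 min room-temperature equilibration, normalized to the DMSO average (×100), and fit with a four-parameter logistic curve.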

[4] = biological target: K-Ras G12C(GMP-PNP) binding to BRAF RBD (Homo sapiens (Human), UniProt P01116+P62937, G12C); assay: Disruption of BRAF RBD interaction with K-Ras (FRET / MOA assay), K-Ras G12C; format: biochemical; settings: read-out: KRAS G12C FRET IC50
Summary of the method: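 Incubation of compound (up to 30 μM final, 3-fold steps) with GMP-PNP-type loaded Ras isoform, cyclophilin A and BRAF RBD ran 3 h at 25° C, followed by 1.5 h with detection antibodies. Disruption appears as a reduced TR-FRET ratio compared with DMSO controls, expressed as IC50.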

Sequence of KRAS G12V (P01116 other isoform, or with tags, fused parts or gaps G12V): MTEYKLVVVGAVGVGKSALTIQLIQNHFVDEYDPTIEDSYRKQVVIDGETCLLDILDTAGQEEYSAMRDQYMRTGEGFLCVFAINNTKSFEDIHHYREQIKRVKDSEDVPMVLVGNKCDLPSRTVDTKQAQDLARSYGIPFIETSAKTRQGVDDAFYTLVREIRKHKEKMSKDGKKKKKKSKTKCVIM
Sequence of KRAS G12V (P62937 whole entry): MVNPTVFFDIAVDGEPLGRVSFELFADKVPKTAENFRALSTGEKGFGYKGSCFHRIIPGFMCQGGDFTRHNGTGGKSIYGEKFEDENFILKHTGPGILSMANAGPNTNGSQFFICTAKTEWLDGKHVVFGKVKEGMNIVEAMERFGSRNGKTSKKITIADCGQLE
Sequence of KRAS G12S (P01116 other isoform, or with tags, fused parts or gaps G12S): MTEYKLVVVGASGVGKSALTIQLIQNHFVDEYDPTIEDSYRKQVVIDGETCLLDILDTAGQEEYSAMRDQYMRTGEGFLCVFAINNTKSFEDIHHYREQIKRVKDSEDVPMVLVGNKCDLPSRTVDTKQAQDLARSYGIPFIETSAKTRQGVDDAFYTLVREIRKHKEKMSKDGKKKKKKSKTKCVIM
Sequence of KRAS G12S (P62937 whole entry): as the sequence (P62937 whole entry) above
Sequence of NRAS Q61R (P01111 whole entry Q61R): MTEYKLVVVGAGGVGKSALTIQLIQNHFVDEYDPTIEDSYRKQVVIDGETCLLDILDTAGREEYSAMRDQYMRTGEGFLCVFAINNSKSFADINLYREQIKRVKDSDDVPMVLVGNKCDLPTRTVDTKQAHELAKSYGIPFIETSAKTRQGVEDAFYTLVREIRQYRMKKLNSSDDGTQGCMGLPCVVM
Sequence of NRAS Q61R (P62937 whole entry): as the sequence (P62937 whole entry) above
Sequence of NRAS Q61K (P01111 whole entry Q61K): as the sequence (P01111 whole entry Q61R) above, with R61K counted along it
Sequence of NRAS Q61K (P62937 whole entry): as the sequence (P62937 whole entry) above
Sequence of NRAS G12C (P01111 whole entry G12C): as the sequence (P01111 whole entry Q61R) above, with G12C, R61Q counted along it
Sequence of NRAS G12C (P62937 whole entry): as the sequence (P62937 whole entry) above
Sequence of KRAS G12C (P01116-2 other isoform, or with tags, fused parts or gaps G12C): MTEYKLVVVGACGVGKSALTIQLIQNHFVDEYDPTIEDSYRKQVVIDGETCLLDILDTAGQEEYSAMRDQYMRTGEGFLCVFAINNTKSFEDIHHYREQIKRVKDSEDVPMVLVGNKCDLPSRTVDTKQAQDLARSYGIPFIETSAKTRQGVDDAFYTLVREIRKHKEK
Sequence of KRAS G12C (P62937 whole entry): as the sequence (P62937 whole entry) above
Sequence of KRAS G13C (P01116 other isoform, or with tags, fused parts or gaps G13C): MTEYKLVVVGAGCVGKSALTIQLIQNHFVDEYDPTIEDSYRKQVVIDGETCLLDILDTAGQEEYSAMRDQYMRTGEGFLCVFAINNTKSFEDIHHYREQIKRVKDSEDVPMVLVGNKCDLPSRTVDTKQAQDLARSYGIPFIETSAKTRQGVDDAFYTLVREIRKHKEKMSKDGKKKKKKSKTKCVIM
Sequence of KRAS G13C (P62937 whole entry): as the sequence (P62937 whole entry) above
Sequence of KRAS WT (P01116 other isoform, or with tags, fused parts or gaps): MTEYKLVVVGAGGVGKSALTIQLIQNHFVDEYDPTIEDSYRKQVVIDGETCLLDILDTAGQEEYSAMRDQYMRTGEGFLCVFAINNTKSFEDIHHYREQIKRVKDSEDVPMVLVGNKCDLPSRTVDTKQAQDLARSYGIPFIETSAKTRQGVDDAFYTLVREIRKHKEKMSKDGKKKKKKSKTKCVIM
Sequence of KRAS WT (P62937 whole entry): as the sequence (P62937 whole entry) above
Sequence of KRAS Q61H (P01116 other isoform, or with tags, fused parts or gaps Q61H): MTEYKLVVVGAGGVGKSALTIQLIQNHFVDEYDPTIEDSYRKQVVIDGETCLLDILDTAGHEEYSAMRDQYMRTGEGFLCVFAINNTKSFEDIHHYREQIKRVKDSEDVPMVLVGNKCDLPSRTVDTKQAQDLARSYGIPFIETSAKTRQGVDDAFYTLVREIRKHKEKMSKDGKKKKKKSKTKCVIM
Sequence of KRAS Q61H (P62937 whole entry): as the sequence (P62937 whole entry) above
Sequence of KRAS G12D (P01116 other isoform, or with tags, fused parts or gaps G12D): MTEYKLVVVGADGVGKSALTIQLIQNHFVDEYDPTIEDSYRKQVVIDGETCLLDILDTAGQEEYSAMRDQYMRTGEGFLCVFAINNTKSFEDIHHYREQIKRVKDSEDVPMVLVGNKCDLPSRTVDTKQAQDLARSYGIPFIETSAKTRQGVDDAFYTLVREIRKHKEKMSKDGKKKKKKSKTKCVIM
Sequence of KRAS G12D (P62937 whole entry): as the sequence (P62937 whole entry) above
Sequence of KRAS G13D (P01116 other isoform, or with tags, fused parts or gaps G13D): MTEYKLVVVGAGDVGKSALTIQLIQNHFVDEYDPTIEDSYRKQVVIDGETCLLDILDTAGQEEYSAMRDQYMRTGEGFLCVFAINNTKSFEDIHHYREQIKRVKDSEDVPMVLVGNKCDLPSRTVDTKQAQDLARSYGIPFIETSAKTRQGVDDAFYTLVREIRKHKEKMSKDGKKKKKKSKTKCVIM
Sequence of KRAS G13D (P62937 whole entry): as the sequence (P62937 whole entry) above
Sequence of NRAS WT (P01111 whole entry): as the sequence (P01111 whole entry Q61R) above, with R61Q counted along it
Sequence of NRAS WT (P62937 whole entry): as the sequence (P62937 whole entry) above
Sequence of K-Ras G12C(GMP-PNP) binding to BRAF RBD (P01116 other isoform, or with tags, fused parts or gaps G12C): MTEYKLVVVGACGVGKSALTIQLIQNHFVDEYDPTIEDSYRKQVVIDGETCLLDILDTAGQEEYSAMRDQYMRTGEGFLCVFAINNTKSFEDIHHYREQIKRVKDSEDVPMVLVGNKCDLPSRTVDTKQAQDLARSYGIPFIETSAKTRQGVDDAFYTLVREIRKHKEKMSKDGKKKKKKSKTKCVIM
Sequence of K-Ras G12C(GMP-PNP) binding to BRAF RBD (P62937 whole entry, canonical isoform): as the sequence (P62937 whole entry) above

IC50 (KRAS G12C)	IC50 (KRAS G12D)	IC50 (KRAS G12S)	IC50 (KRAS G12V)	IC50 (KRAS G13C)	IC50 (KRAS G13D)	IC50 (KRAS Q61H)	IC50 (KRAS WT)	IC50 (NRAS G12C)	IC50 (NRAS Q61K)	IC50 (NRAS Q61R)	IC50 (NRAS WT)	IC50 [2]	IC50 ([2]; Homo sapiens, NCI-H358, 120 h)	EC50 [3]	IC50 (NCI-H358 (K-Ras G12C))	IC50 [4]	Compound	IC50 ([1]; Homo sapiens, CAPAN-1, 120 h)	IC50 [1]
0.1 to 1 µM	1 to 10 µM	1 to 10 µM	1 to 10 µM	0.1 to 1 µM	1 to 10 µM	0.1 to 1 µM	0.1 to 1 µM	1 to 10 µM	0.1 to 1 µM	1 to 10 µM	0.1 to 1 µM	–	–	–	–	–	CCn1c(-c2cccnc2[C@H](C)OC)c2c3cc(ccc31)-c1cc(O)cc(c1)C[C@H](NC(=O)[C@@H]1[C@@H](C)CCN1C(C)=O)C(=O)N1CCC[C@H](N1)C(=O)OCC(C)(C)C2 [Compound A208]	> 10 µM	–
0.01 to 0.1 µM	0.1 to 1 µM	0.01 to 0.1 µM	0.01 to 0.1 µM	0.01 to 0.1 µM	0.1 to 1 µM	0.01 to 0.1 µM	0.01 to 0.1 µM	0.01 to 0.1 µM	0.1 to 1 µM	0.1 to 1 µM	0.01 to 0.1 µM	–	–	–	–	–	CCn1c(-c2cccnc2[C@H](C)OC)c2c3cc(ccc31)-c1cc(O)cc(c1)C[C@H](NC(=O)[C@H](C(C)C)N(C)C(=O)C1CCC(=O)N1C)C(=O)N1CCC[C@H](N1)C(=O)OCC(C)(C)C2 (some centres unmarked) [Compound A230]	1 to 10 µM	–
0.1 to 1 µM	1 to 10 µM	0.1 to 1 µM	0.1 to 1 µM	0.1 to 1 µM	1 to 10 µM	0.1 to 1 µM	–	0.1 to 1 µM	0.1 to 1 µM	–	–	0.1 to 1 µM	–	–	–	–	CCn1c(-c2cccnc2[C@H](C)OC)c2c3cc(ccc31)-c1csc(n1)C[C@H](NC(=O)[C@H](C(C)C)N(C)C(=O)N1CC(OC)C1)C(=O)N1CCC[C@H](N1)C(=O)OCC(C)(C)C2 [Compound A354]	–	0.1 to 1 µM
0.1 to 1 µM	1 to 10 µM	0.1 to 1 µM	0.1 to 1 µM	0.1 to 1 µM	1 to 10 µM	0.1 to 1 µM	0.1 to 1 µM	0.1 to 1 µM	0.1 to 1 µM	–	0.1 to 1 µM	–	0.1 to 1 µM	–	–	–	CCn1c(-c2cccnc2[C@H](C)OC)c2c3cc(ccc31)-c1csc(n1)C[C@H](NC(=O)N1CCC1)C(=O)N1CCC[C@H](N1)C(=O)OCC(C)(C)C2 [Compound A368]	0.1 to 1 µM	–
1 to 10 µM	1 to 10 µM	1 to 10 µM	–	1 to 10 µM	1 to 10 µM	–	1 to 10 µM	1 to 10 µM	1 to 10 µM	1 to 10 µM	1 to 10 µM	–	–	< 5 µM	–	–	CCn1c(-c2cccnc2[C@H](C)OC)c2c3cc(ccc31)-c1csc(n1)C[C@H](NC(=O)[C@H](C(C)C)N(C)C(=O)[C@H]1[C@@H]3CNC[C@@H]31)C(=O)N1CCC[C@H](N1)C(=O)OCC(C)(C)C2 [Compound A448]	> 10 µM	–
1 to 10 µM	1 to 10 µM	1 to 10 µM	1 to 10 µM	1 to 10 µM	1 to 10 µM	–	1 to 10 µM	1 to 10 µM	1 to 10 µM	1 to 10 µM	1 to 10 µM	–	–	–	> 10 µM	1 to 10 µM	CCn1c(-c2cccnc2[C@H](C)OC)c2c3cc(ccc31)-c1csc(n1)C[C@H](NC(=O)[C@H](C(C)C)N(C)C(=O)N1C[C@@H]3CCN(C)C[C@@H]31)C(=O)N1CCC[C@H](N1)C(=O)OCC(C)(C)C2 [Compound A516]	0.1 to 1 µM	–
1 to 10 µM	1 to 10 µM	1 to 10 µM	1 to 10 µM	1 to 10 µM	1 to 10 µM	–	1 to 10 µM	1 to 10 µM	1 to 10 µM	1 to 10 µM	1 to 10 µM	–	1 to 10 µM	< 5 µM	–	–	CCn1c(-c2cccnc2[C@H](C)OC)c2c3cc(ccc31)-c1csc(n1)C[C@H](NC(=O)[C@H](C(C)C)N(C)C(=O)N1C[C@H]3CCN(C)C[C@H]31)C(=O)N1CCC[C@H](N1)C(=O)OCC(C)(C)C2 [Compound A517]	0.1 to 1 µM	–
–	–	–	–	–	–	–	–	0.01 to 0.1 µM	0.1 to 1 µM	0.01 to 0.1 µM	0.1 to 1 µM	–	< 0.01 µM	< 5 µM	–	–	CCn1c(-c2cc(N3CCN(C)CC3)cnc2[C@H](C)OC)c2c3cc(ccc31)-c1csc(n1)C[C@H](NC(=O)[C@H](C(C)C)N(C)C(=O)C1OCC[C@@H]1c1ccccc1)C(=O)N1CCC[C@H](N1)C(=O)OCC(C)(C)C2 (some centres unmarked) [Compound A583]	< 0.01 µM	–
1 to 10 µM	1 to 10 µM	1 to 10 µM	1 to 10 µM	1 to 10 µM	1 to 10 µM	–	1 to 10 µM	1 to 10 µM	0.1 to 1 µM	1 to 10 µM	1 to 10 µM	–	0.1 to 1 µM	–	0.01 to 0.1 µM	0.1 to 1 µM	CCn1c(-c2cccnc2[C@H](C)OC)c2c3nc(ccc31)-c1csc(n1)C[C@H](NC(=O)[C@H](C(C)C)N(C)C(=O)N1CC(OC)C1)C(=O)N1CCC[C@H](N1)C(=O)OCC(C)(C)C2 [Compound A613, N-((2S)-1-(((6^3S,4S,Z)-1^1-ethyl-1^2-(2-((S)-1-methoxyethyl)pyridin-3-yl)-10,10-dimethyl-5,7-dioxo-6^1,6^2,6^3,6^4,6^5,6^6-hexahydro-1^1H-8-oxa-2 (4,2)-thiazola-1 (5,3)-pyrrolo [3,2-b]pyridina-6 (1,3)-pyridazinacycloundecaphane-4-yl)amino)-3-methyl-1-oxobutan-2-yl)-3-methoxy-N-methylazetidine-1-carboxamide]	0.1 to 1 µM	–

Compound	IC50 (KRAS G12C)	IC50 (KRAS G12D)	IC50 (KRAS G12S)	IC50 (KRAS G12V)	IC50 (KRAS G13C)	IC50 (KRAS G13D)	IC50 (KRAS Q61H)	IC50 (KRAS WT)	IC50 (NRAS G12C)	IC50 (NRAS Q61K)	IC50 (NRAS Q61R)	IC50 (NRAS WT)	IC50 [2]	IC50 ([2]; Homo sapiens, NCI-H358, 120 h)	EC50 [3]	IC50 (NCI-H358 (K-Ras G12C))	IC50 [4]	IC50 ([1]; Homo sapiens, CAPAN-1, 120 h)	IC50 [1]
CCn1c(-c2cccnc2[C@H](C)OC)c2c3cc(ccc31)-c1cc(O)cc(c1)C[C@H](NC(=O)CC(C)c1ccncc1)C(=O)N1CCC[C@H](N1)C(=O)OCC(C)(C)C2 (some centres unmarked) [Compound A178]	0.1 to 1 µM and 1 to 10 µM	1 to 10 µM and > 10 µM	1 to 10 µM	1 to 10 µM	0.1 to 1 µM	1 to 10 µM	0.1 to 1 µM	0.1 to 1 µM and 1 to 10 µM	1 to 10 µM	1 to 10 µM	1 to 10 µM and > 10 µM	0.1 to 1 µM and 1 to 10 µM	–	–	–	–	–	> 10 µM	–
